# Source: EP0385952A2, “Use of a naphthalenmethanamino derivative as antiinflammatory agent and pharmaceutical compositions containing it” (SANDOZ AG, priority 1989, dated 1990)
# Marks after values point to notes of the source that are not given here.
# How the values were obtained:
# 5-lipoxygenase = molecular target: T1, 5-lipoxygenase (Homo sapiens, UniProt P09917); assay: 5-lipoxygenase inhibition (neutrophil functions); assay type: cell-based; details: read-out: IC₅₀ for 5-lipoxygenase
# T1 construct: endogenous in cells
# T1 sequence (P09917 1-674): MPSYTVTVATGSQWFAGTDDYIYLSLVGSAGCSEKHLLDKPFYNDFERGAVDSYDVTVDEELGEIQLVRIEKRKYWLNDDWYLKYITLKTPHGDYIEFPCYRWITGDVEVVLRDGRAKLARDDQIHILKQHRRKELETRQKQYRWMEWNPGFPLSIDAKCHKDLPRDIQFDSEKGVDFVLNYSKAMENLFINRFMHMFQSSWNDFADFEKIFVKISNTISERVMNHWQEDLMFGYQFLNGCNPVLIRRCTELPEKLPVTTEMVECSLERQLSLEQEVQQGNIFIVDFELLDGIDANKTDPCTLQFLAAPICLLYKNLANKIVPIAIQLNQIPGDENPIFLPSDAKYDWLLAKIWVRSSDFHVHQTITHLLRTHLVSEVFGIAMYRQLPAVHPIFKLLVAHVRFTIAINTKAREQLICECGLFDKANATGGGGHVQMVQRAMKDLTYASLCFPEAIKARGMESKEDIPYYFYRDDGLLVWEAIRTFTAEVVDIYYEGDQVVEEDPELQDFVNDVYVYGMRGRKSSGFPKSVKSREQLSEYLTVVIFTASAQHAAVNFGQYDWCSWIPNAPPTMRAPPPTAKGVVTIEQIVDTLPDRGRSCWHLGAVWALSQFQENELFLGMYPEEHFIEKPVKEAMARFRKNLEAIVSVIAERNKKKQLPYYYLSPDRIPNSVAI
# NMRI mice = assay: Arachidonic acid-induced pinnal swelling in mice (irritant contact dermatitis, 2.1.1.); assay type: in vivo; details: prophylactic, epicutaneous, pinnal weight
# Protocol: Skin irritation with arachidonic acid or cantharidin is often used to experimentally induce inflammation in order to evaluate the anti-inflammatory activity of a compound [see e.g. Inflammation 8 (1984) 134-135; 10 (1986) 205-214]. NMRI mice (8 animals per group) receive 10 µl of a 10 % solution of arachidonic acid [J.M. Young et al., J. Invest. Derm. 82 (1986) 367-371] in acetone or, respectively, 0.08 % cantharidin [K.E. Swingle et al., Arch. Int. Pharmacodyn. Ther. 254 (1981) 168-176] in acetone applied to the medial and lateral surface of the right external ear. Treatment is performed either prophylactically 30 minutes before irritation (arachidonic acid) or, respectively, either simultaneously with the application of irritant solution or therapeutically 20 minutes after irritation (cantharidin), by a single epicutaneous application of the test compound dissolved in a mixture of N,N-dimethylacetamide, acetone and alcohol (2:2:4). The evaluation of the test group is effected by comparison with a control group of animals having received on the right ear lobe only the carrier substance or the irritant solution. The animals are killed 1.5 hours (arachidonic acid) or, respectively, 17 hours (cantharidin) after application of the irritant and efficacy in assessed by determination of the differences in auricular weight. Differences in weights (D) of right (involved) and left (uninvolved) pinnae of animals treated with test compound and arachidonic acid or cantharidin (T-group) are compared with differences in mice treated with arachidonic acid only or cantharidin only (C-group). Efficacy (%) is calculated according to the equation: [formula]
compound,measurement,setting,value
"CN(C/C=C/c1ccc(O)cc1)Cc1cccc2ccccc12 [compound of the invention, (E)-N-methyl-N-[3-(4-hydroxyphenyl)-2-propenyl]-1-naphthalene-methanamine]",IC50,5-lipoxygenase,44 µM
same,Efficacy (%),NMRI mice; test concentration 1.2 %,33** %
same,Efficacy (%),NMRI mice; test concentration 3.6 %,48*** %
